In patent publication US12714696B2, “Low dose fluralaner compositions for protection against parasitic invertebrate pest” (VIRBAC, priority 2019, dated 2026):
Several values for one entry are separate records, joined by “and”; a condition that tells them apart may be missing. Equal entries are not always repeated. Where two headings read alike, the source gives them in different places.

Test: Pharmacokinetics after repeated oral administration of 35 μg/kg of fluralaner in dogs after feeding
Assay type: in vivo, beagle dogs
Settings: for concentration at 24 h / concentration at 48 h / concentration at 72 h / concentration at 96 h / concentration at 120 h / concentration at 240 h / concentration at 360 h / concentration at 480 h: po, 35 μg/kg
Experimental: The first objective of the study was to obtain the pharmacokinetic parameters after repeated oral administration of 35 μg/kg of fluralaner in dogs, 30 to 35 minutes after feeding.
The second objective was to investigate the pharmacodynamics between the fluralaner plasmatic dose and the effectiveness against fleas. • IVP: Investigational Veterinary Product, is pure Fluralaner+DMSO (35 μg/kg on Days 0 to 3 (0.35 mL/kg)) • Control product is DMSO (0.35 mL/kg on Days 0 to 3)
On Days 0, 1, 2 and 3, all dogs assigned to group 2 received the Investigational Veterinary Product. On Days 0 to 3 all dogs in group 1 received the control product at a volume equal to the dogs in group 2. Dogs assigned to group 1 received the control product and served as Placebo controls. The quantity of Investigational Veterinary Product and control product administered was calculated according to the dog's individual body weight measured on Day −1.
Blood samples were taken from all dogs prior to Investigational Veterinary Product treatment or control product administration on Day 0 and on Days 1 (+24 hours), 2 (+48 hours), 3 (+72 hours), 4 (+96 hours), 5 (+120 hours), 10 (+240 hours), 15 (+360 hours), 20 (+480 hours), 24 (+576 hours) and Day 28 (+672 hours).
On days of administration of pre-Investigational Veterinary Product or Control Product, dogs were fed (the same dog food) approximately half of their normal daily ration 30 minutes to 35 minutes prior to administration. Food consumed by the time of administration was calculated and recorded. The remainder of their normal daily ration was fed immediately after administration.
The PK parameters of fluralaner were calculated using a non-compartmental approach.
The following rules were applied for the calculation of the PK parameters: • All the plasma concentrations, validated by the bioanalytical laboratory, were used for the PK analysis. • The actual blood sampling times were used throughout. • Concentrations below the Limit of Quantification (LOQ) value were considered as zero from time zero (pre-dose) up to the time at which the first quantifiable concentration above the LOQ value was observed. Concentrations below the LOQ value between two quantifiable concentrations were considered as missing. Trailing concentrations below the LOQ value were not used in calculations.
Cmax the observed maximum concentration in plasma measured after dosing.
tmax the time at which Cmax was apparent.
λz the terminal rate constant (λz) was estimated by log-linear regression analysis on data points visually assessed, to be on the terminal log-linear phase. For the slope of the terminal elimination phase to be accepted as reliable, the following criteria were used: • the terminal data points were apparently randomly distributed about a single straight line (on visual inspection), • a minimum of three data points, including the last measured data point and excluding Cmax, were available for the regression.
t1/2 the terminal plasma half-life (t1/2) was calculated according to the following equation: […]
AUC0-t the area under the concentration-time curve from time zero (pre-dose) to the time of last quantifiable concentration (t) was calculated using a linear trapezoidal method.
[AUC0-∞=AUC0-t+(Ct/λz)], where Ct was the observed concentration of drug for the last sample on the PK profile in which the drug was detected, and λz was as defined above.
The extrapolated area under the curve, expressed as a percentage of the total area, AUCinf, was also calculated as: Area Extra (%)=(AUC0-∞−AUC0-t)/AUC0-∞*100%.

With `Cc1cc(C2=NOC(c3cc(Cl)cc(Cl)c3)(C(F)(F)F)C2)ccc1C(=O)NCC(=O)NCC(F)(F)F` (centres unmarked) [fluralaner, Fluralaner] the “fluralaner concentration levels, individual animal” value (from here on “fluralaner concentration levels”) (24 h, oral 35 μg/kg Days 0-3, dogs) was 16.5 ng/mL and 16.9 ng/mL (2×) and 18.1 ng/mL and 19.0 ng/mL, the “fluralaner concentration levels” value (48 h, oral 35 μg/kg Days 0-3, dogs) was 27.8 ng/mL and 32.2 ng/mL and 37.2 ng/mL and 35.2 ng/mL and 40.9 ng/mL and the “fluralaner concentration levels” value (72 h, oral 35 μg/kg Days 0-3, dogs) was 60.6 ng/mL and 47.9 ng/mL and 61.0 ng/mL and 42.0 ng/mL and 57.7 ng/mL. For the same compound, the “fluralaner concentration levels” value (96 h, oral 35 μg/kg Days 0-3, dogs) was 76.6 ng/mL and 91.6 ng/mL and 84.5 ng/mL and 71.8 ng/mL and 92.4 ng/mL, the “fluralaner concentration levels” value (120 h, oral 35 μg/kg Days 0-3, dogs) was 60.1 ng/mL and 63.6 ng/mL and 55.6 ng/mL and 62.9 ng/mL and 70.0 ng/mL and the “fluralaner concentration levels” value (240 h, oral 35 μg/kg Days 0-3, dogs) was 45.8 ng/mL and 34.1 ng/mL and 36.3 ng/mL and 51.6 ng/mL and 44.4 ng/mL. The “fluralaner concentration levels” value (360 h, oral 35 μg/kg Days 0-3, dogs) was 39.2 ng/mL and 39.6 ng/mL and 43.5 ng/mL and 37.4 ng/mL and 35.2 ng/mL, the “fluralaner concentration levels” value (480 h, oral 35 μg/kg Days 0-3, dogs) was 26.1 ng/mL and 17.1 ng/mL and 21.1 ng/mL and 26.6 ng/mL and 18.4 ng/mL and the “fluralaner concentration levels” value (576 h, oral 35 μg/kg Days 0-3, dogs) was 22.0 ng/mL and 14.7 ng/mL and 15.0 ng/mL and 22.2 ng/mL and 13.3 ng/mL. For the same compound, the “fluralaner concentration levels” value (672 h, oral 35 μg/kg Days 0-3, dogs) was 15.1 ng/mL and 9.1 ng/mL and 10.3 ng/mL and 16.0 ng/mL and 10.4 ng/mL, the steady state concentrations (after the fourth dose of 35 μg/kg per day oral) was “not reached” and the tmax (beagle, dog, plasma, 35 ug/kg, oral 35 μg/kg Days 0-3, dogs, read-out: Tmax, individual animal) was 96 h. It also gave a concentration at 24 h (beagle, dog, plasma, 24 h, oral 35 μg/kg Days 0-3, dogs, n=6, read-out: fluralaner concentration levels, GeoMean) of 17.3 ng/mL, a concentration at 24 h (beagle, dog, plasma, 24 h, oral 35 μg/kg Days 0-3, dogs, n=6, read-out: fluralaner concentration levels, Maximum) of 19 ng/mL and a concentration at 24 h (beagle, dog, plasma, 24 h, oral 35 μg/kg Days 0-3, dogs, n=6, read-out: fluralaner concentration levels, Mean) of 17.4 ng/mL. For the same compound, the concentration at 24 h (beagle, dog, plasma, 24 h, oral 35 μg/kg Days 0-3, dogs, n=6, read-out: fluralaner concentration levels, Median) was 16.9 ng/mL, the concentration at 24 h (beagle, dog, plasma, 24 h, oral 35 μg/kg Days 0-3, dogs, n=6, read-out: fluralaner concentration levels, Minimum) was 18.5 ng/mL and the concentration at 24 h (beagle, dog, plasma, 24 h, oral 35 μg/kg Days 0-3, dogs, read-out: fluralaner concentration levels, individual animal) was 16.7 ng/mL. For the same compound, the concentration at 48 h (beagle, dog, plasma, 48 h, oral 35 μg/kg Days 0-3, dogs, n=6, read-out: fluralaner concentration levels, GeoMean) was 32.8 ng/mL, the concentration at 48 h (beagle, dog, plasma, 48 h, oral 35 μg/kg Days 0-3, dogs, n=6, read-out: fluralaner concentration levels, Maximum) was 40.9 ng/mL and the concentration at 48 h (beagle, dog, plasma, 48 h, oral 35 μg/kg Days 0-3, dogs, n=6, read-out: fluralaner concentration levels, Mean) was 33.2 ng/mL. The concentration at 48 h (beagle, dog, plasma, 48 h, oral 35 μg/kg Days 0-3, dogs, n=6, read-out: fluralaner concentration levels, Median) was 33.7 ng/mL, the concentration at 48 h (beagle, dog, plasma, 48 h, oral 35 μg/kg Days 0-3, dogs, n=6, read-out: fluralaner concentration levels, Minimum) was 26.1 ng/mL and the concentration at 48 h (beagle, dog, plasma, 48 h, oral 35 μg/kg Days 0-3, dogs, read-out: fluralaner concentration levels, individual animal) was 26.1 ng/mL. It also gave a concentration at 72 h (beagle, dog, plasma, 72 h, oral 35 μg/kg Days 0-3, dogs, n=6, read-out: fluralaner concentration levels, GeoMean) of 51.7 ng/mL, a concentration at 72 h (beagle, dog, plasma, 72 h, oral 35 μg/kg Days 0-3, dogs, n=6, read-out: fluralaner concentration levels, Maximum) of 61 ng/mL and a concentration at 72 h (beagle, dog, plasma, 72 h, oral 35 μg/kg Days 0-3, dogs, n=6, read-out: fluralaner concentration levels, Mean) of 52.3 ng/mL. The concentration at 72 h (beagle, dog, plasma, 72 h, oral 35 μg/kg Days 0-3, dogs, n=6, read-out: fluralaner concentration levels, Median) was 52.8 ng/mL, the concentration at 72 h (beagle, dog, plasma, 72 h, oral 35 μg/kg Days 0-3, dogs, n=6, read-out: fluralaner concentration levels, Minimum) was 42 ng/mL and the concentration at 72 h (beagle, dog, plasma, 72 h, oral 35 μg/kg Days 0-3, dogs, read-out: fluralaner concentration levels, individual animal) was 44.6 ng/mL. It also gave a concentration at 96 h (beagle, dog, plasma, 96 h, oral 35 μg/kg Days 0-3, dogs, n=6, read-out: fluralaner concentration levels, GeoMean) of 84 ng/mL, a concentration at 96 h (beagle, dog, plasma, 96 h, oral 35 μg/kg Days 0-3, dogs, n=6, read-out: fluralaner concentration levels, Maximum) of 92.4 ng/mL and a concentration at 96 h (beagle, dog, plasma, 96 h, oral 35 μg/kg Days 0-3, dogs, n=6, read-out: fluralaner concentration levels, Mean) of 84.4 ng/mL. For the same compound, the concentration at 96 h (beagle, dog, plasma, 96 h, oral 35 μg/kg Days 0-3, dogs, n=6, read-out: fluralaner concentration levels, Median) was 87 ng/mL, the concentration at 96 h (beagle, dog, plasma, 96 h, oral 35 μg/kg Days 0-3, dogs, n=6, read-out: fluralaner concentration levels, Minimum) was 71.8 ng/mL and the concentration at 96 h (beagle, dog, plasma, 96 h, oral 35 μg/kg Days 0-3, dogs, read-out: fluralaner concentration levels, individual animal) was 89.4 ng/mL. The concentration at 120 h (beagle, dog, plasma, 120 h, oral 35 μg/kg Days 0-3, dogs, n=6, read-out: fluralaner concentration levels, GeoMean) was 63.8 ng/mL, the concentration at 120 h (beagle, dog, plasma, 120 h, oral 35 μg/kg Days 0-3, dogs, n=6, read-out: fluralaner concentration levels, Maximum) was 72.3 ng/mL and the concentration at 120 h (beagle, dog, plasma, 120 h, oral 35 μg/kg Days 0-3, dogs, n=6, read-out: fluralaner concentration levels, Mean) was 64.1 ng/mL. For the same compound, the concentration at 120 h (beagle, dog, plasma, 120 h, oral 35 μg/kg Days 0-3, dogs, n=6, read-out: fluralaner concentration levels, Median) was 63.2 ng/mL, the concentration at 120 h (beagle, dog, plasma, 120 h, oral 35 μg/kg Days 0-3, dogs, n=6, read-out: fluralaner concentration levels, Minimum) was 55.6 ng/mL and the concentration at 120 h (beagle, dog, plasma, 120 h, oral 35 μg/kg Days 0-3, dogs, read-out: fluralaner concentration levels, individual animal) was 72.3 ng/mL. For the same compound, the concentration at 240 h (beagle, dog, plasma, 240 h, oral 35 μg/kg Days 0-3, dogs, n=6, read-out: fluralaner concentration levels, GeoMean) was 43.9 ng/mL, the concentration at 240 h (beagle, dog, plasma, 240 h, oral 35 μg/kg Days 0-3, dogs, n=6, read-out: fluralaner concentration levels, Maximum) was 54.9 ng/mL and the concentration at 240 h (beagle, dog, plasma, 240 h, oral 35 μg/kg Days 0-3, dogs, n=6, read-out: fluralaner concentration levels, Mean) was 44.5 ng/mL. For the same compound, the concentration at 240 h (beagle, dog, plasma, 240 h, oral 35 μg/kg Days 0-3, dogs, n=6, read-out: fluralaner concentration levels, Median) was 45.1 ng/mL, the concentration at 240 h (beagle, dog, plasma, 240 h, oral 35 μg/kg Days 0-3, dogs, n=6, read-out: fluralaner concentration levels, Minimum) was 34.1 ng/mL and the concentration at 240 h (beagle, dog, plasma, 240 h, oral 35 μg/kg Days 0-3, dogs, read-out: fluralaner concentration levels, individual animal) was 54.9 ng/mL. It also gave a concentration at 360 h (beagle, dog, plasma, 360 h, oral 35 μg/kg Days 0-3, dogs, n=6, read-out: fluralaner concentration levels, GeoMean) of 39.5 ng/mL, a concentration at 360 h (beagle, dog, plasma, 360 h, oral 35 μg/kg Days 0-3, dogs, n=6, read-out: fluralaner concentration levels, Maximum) of 43.5 ng/mL and a concentration at 360 h (beagle, dog, plasma, 360 h, oral 35 μg/kg Days 0-3, dogs, n=6, read-out: fluralaner concentration levels, Mean) of 39.6 ng/mL. For the same compound, the concentration at 360 h (beagle, dog, plasma, 360 h, oral 35 μg/kg Days 0-3, dogs, n=6, read-out: fluralaner concentration levels, Median) was 39.4 ng/mL, the concentration at 360 h (beagle, dog, plasma, 360 h, oral 35 μg/kg Days 0-3, dogs, n=6, read-out: fluralaner concentration levels, Minimum) was 35.2 ng/mL and the concentration at 360 h (beagle, dog, plasma, 360 h, oral 35 μg/kg Days 0-3, dogs, read-out: fluralaner concentration levels, individual animal) was 42.8 ng/mL. For the same compound, the concentration at 480 h (beagle, dog, plasma, 480 h, oral 35 μg/kg Days 0-3, dogs, n=6, read-out: fluralaner concentration levels, GeoMean) was 22.1 ng/mL and the concentration at 480 h (beagle, dog, plasma, 480 h, oral 35 μg/kg Days 0-3, dogs, n=6, read-out: fluralaner concentration levels, Maximum) was 26.6 ng/mL.
